Measurements: PMC5548886 (Cancer Medicine, 2017)

Tested on: patients with locally advanced or metastatic melanoma
Assay: Phase I dose-escalation: safety, adverse events (NCI CTCAE v3.0), DLT and MTD
Format: in vivo
Source text: This study was an open‐label, multicenter, nonrandomized, phase I/II, dose‐escalation study of orally administered RAF265. […] The study was comprised of two phases: A dose escalation phase and an expansion phase at the MTD/RP2D. The dose‐escalation phase was guided by pharmacokinetics (PK), pharmacodynamics (PD) and safety. […] In the expansion phase (cohort 7.1) the PK run in was omitted and patients received a loading dose in 3 divided doses followed by lower daily dose beginning on Cycle 1, Day 2. The cycle length was 28 days in all cohorts. Here, we report the dose escalation and expansion arm investigating a continuous treatment regimen.
Medical history and demographics were collected at screening. The safety of study medication was evaluated on the basis of rate, type, severity graded in accordance with NCI CTCAE version 3.0. Safety assessments consisted of collecting all AEs, serious adverse events (SAEs) with their severity and relationship with study drug, and pregnancies. They included the regular monitoring of hematology, blood chemistry and urine performed at the study center/central laboratory and regular assessments of vital signs, physical condition, body weight, performance status, and cardiac data (i.e. electrocardiogram (ECG)/echocardiogram (ECHO)). Abnormalities in clinical laboratory tests that were considered clinically significant by the Investigator were recorded on the AE CRF. Dose‐limiting toxicities (DLTs) were defined for various organ systems and other clinically relevant adverse effects (Table S1). The DLT window was the first cycle while AEs were captured for the entire course of treatment. Evaluation of tumor response was conducted at Baseline, and at the end of every 8 weeks of treatment. Response was assessed using the Response Evaluation Criteria in Solid Tumors (RECIST) 1.0. A complete or partial response (CR or PR) was confirmed at least 28 days after the first assessment that documented response and every two cycles thereafter until disease progression, initiation of confounding anticancer therapy, death, loss to follow‐up, withdrawal of consent, or study termination. All patients discontinuing from the study for progressive disease were to have their disease progression documented by radiologic evaluation.
The MTD was defined as the dose level with 16–33.3% probability of a DLT. […] Descriptive statistic were used for the analysis of PK, biomarker analysis and tumor response data.

## Cn1c(Nc2ccc(C(F)(F)F)cc2)nc2cc(Oc3ccnc(-c4ncc(C(F)(F)F)[nH]4)c3)ccc21 [RAF265]
5 deaths, none deemed treatment related
  deaths within 28 days of last administration of the study drug: 6.5%
human, in vivo
  AEs requiring dose adjustment or interruption, patients: 39%
  Abdominal pain (treatment-emergent grade 3/4): 1 (2.4%) n (%)
  Angina unstable (treatment-emergent grade 3/4): 1 (2.4%) n (%)
  Ataxia (treatment-emergent grade 3/4): 1 (2.4%) n (%)
  Basal cell carcinoma (treatment-emergent grade 3/4): 1 (2.4%) n (%)
  Blood lactic acid increased (treatment-emergent grade 3/4): 1 (2.4%) n (%)
  Cutaneous lupus erythematosus (treatment-emergent grade 3/4): 1 (2.4%) n (%)
  Decreased appetite (treatment-emergent grade 3/4): 2 (4.8%) n (%)
  Diarrhea (treatment-emergent grade 3/4): 4 (9.8%) n (%)
  Dyspnea (treatment-emergent grade 3/4): 1 (2.4%) n (%)
  Fatigue (treatment-emergent grade 3/4): 6 (14.4%) n (%)
  Hematological (treatment-emergent grade 3/4): 12 (29.2%) n (%)
  Hypertension (treatment-emergent grade 3/4): 4 (9.8%) n (%)
  Hypophosphatemia (treatment-emergent grade 3/4): 1 (2.4%) n (%)
  Lipase increased (treatment-emergent grade 3/4): 2 (4.8%) n (%)
  Neutropenia (treatment-emergent grade 3/4): 4 (9.8%) n (%)
  Pancytopenia (treatment-emergent grade 3/4): 1 (2.4%) n (%)
  Pulmonary embolism (treatment-emergent grade 3/4): 2 (4.8%) n (%)
  SAE constipation: 2.6%
  SAE dehydration: 5.2%
  SAE pulmonary embolism: 6.5%
  SAE retinopathy: 2.6%
  SAE thrombocytopenia: 3.9%
  Squamous cell carcinoma (treatment-emergent grade 3/4): 2 (4.8%) n (%)
  Thrombocytopenia (treatment-emergent grade 3/4): 7 (17.1%) n (%)
  Total (n), treatment-emergent grade 3/4 events: 41 (53.2%) n (%)
  Vitreous floaters (treatment-emergent grade 3/4): 2 (4.8%) n (%)
  Weight loss (treatment-emergent grade 3/4): 1 (2.4%) n (%)
  decreased appetite requiring dose adjustment or interruption: 5.2%
  development of hypertension, patients: 17%
  diarrhea requiring dose adjustment or interruption: 6.5%
  fatigue requiring dose adjustment or interruption: 7.8%
  hypertension requiring dose adjustment or interruption: 5.2%
  nausea requiring dose adjustment or interruption: 5.2%
  overall rate of grade 3 and 4 toxicities: 53.2%
  photopsia requiring dose adjustment or interruption: 5.2%
  serious adverse events (SAEs), patients: 37.7%
  thrombocytopenia requiring dose adjustment or interruption: 3.9%
  vitreous floaters requiring dose adjustment or interruption: 5.2%
  vitreous floaters, treatment-related adverse effect, patients: 27%
human, in vivo, 28 days
  patients with dose-limiting toxicities: 6 patients
Once daily given continuously (dose level 6)
  maximum tolerated dose (MTD): 48 mg
